# Experimental data taken from US20060079453A1, “Hla binding peptides and their uses” (priority 2002, published 2006).
# Values joined by “and” are separate entries in the source; they are usually repeats but may differ in a detail not shown here. Equal values may be shown once. Read-outs that look alike come from different tables or passages of the source. No end group written: not given here.
# Experiments:
# HLA-B*4403 = HLA-B*4403 (Homo sapiens, UniProt P01889, A223V/A65T/A93T/A95T/D201E/D98Y/E176V/E187L/E204Q/E69K/G107R/H137Y/K202T/L105A/L119I/N104T/N87E/Q56L/Q94N/R106L/R155S/R180L/S101N/S121R/S35A/S48T/T118I/V36M/W191S/Y140D/Y91S); test: biochemical; format: binding
# HLA-B*4501 = HLA-B*4501 (Homo sapiens, UniProt P01889, A329T/A65T/A93T/A95T/C349S/D138N/D201E/D98Y/E176V/E187L/E204Q/E69K/H137Y/K202T/L119W/N87E/Q56L/Q94N/R155S/R180D/S121R/S35A/S48T/V127L/V306I/V36M/W191S/Y140L/Y33H/Y91S); test: biochemical; format: binding
# HLA-B*1801 = HLA-B*1801 (Homo sapiens, UniProt P01889, A329T/A93T/A95T/C349S/D201E/D54G/D98Y/E176V/E187T/E204Q/E69T/K202T/Q94N/R155S/R180L/S121R/V306I/Y140S/Y195H/Y33H/Y91S); test: biochemical; format: binding
# HLA-B*4002 = HLA-B*4002 (Homo sapiens, UniProt P01889, A65T/A93T/A95T/D138N/D201E/D98Y/E176V/E204Q/E69K/K202T/N87E/Q56L/Q94N/R180L/S48T/Y33H/Y91S); test: biochemical; format: binding
# HLA-B*4402 = HLA-B*4402 (Homo sapiens, UniProt P01889, A223V/A65T/A93T/A95T/D201E/D98Y/E176V/E187L/E204Q/E69K/G107R/H137Y/K202T/L105A/L119I/N104T/N87E/Q56L/Q94N/R106L/R155S/R180D/S101N/S121R/S35A/S48T/T118I/V36M/W191S/Y140D/Y91S); test: biochemical; format: binding
# HLA-A*3002 = HLA-A*3002 (Homo sapiens, UniProt P04439, D101N/D140H/D185E/E176R/F33S/G80R/H175R/K168Q/Q94H/R138E/R41S/V100E); test: biochemical; format: binding
# HLA-A*0101 = HLA-A*0101 (Homo sapiens, UniProt P04439, A114D/A174V/A182V/D101N/D185E/E176A/E190D/L180R/Q94H/R68K/S129P/T187R/V100A/V91M/W191G); test: biochemical; format: binding
# HLA-A*2902 = HLA-A*2902 (Homo sapiens, UniProt P04439, A270S/D101N/D185E/E176V/E277Q/E87Q/F33T/G231S/H175R/I121M/I218V/I322F/K168Q/L300P/L318F/M331R/P208A/P217A/Q86L/T323A/T345S/V100A/V358M); test: MHC molecular binding / Capture assay, IC50: A*2902
# HLA-B*4001 = HLA-B*4001 (Homo sapiens, UniProt P01889, A65T/A93T/A95T/D138N/D98Y/E176V/E69K/N87E/Q56L/Q94N/R180L/S121R/S35A/S48T/T167S/V36M/W171L/Y33H/Y91S); test: biochemical; format: binding
# [1] = Binding affinity to A*0101 (expressed as an IC50)
# [2] = Binding affinity to A*3002 (expressed as an IC50)
# [3] = Binding affinity to A*2902 (expressed as an IC50)
# [4] = read-out: Binding affinity to A*0101 (expressed as an IC50)
sequence,measurement,setting,value
GELSYLNV,IC50,HLA-B*4403; B*4403,23700 nM
same,IC50,HLA-B*4501; B*4501,784 nM
same,IC50,HLA-B*1801; B*1801,> 24800 nM
same,IC50,HLA-B*4002; B*4002,100 nM
same,IC50,HLA-B*4402; B*4402,19000 nM
HTDTPTLHEY,IC50,HLA-A*3002,54 nM
same,IC50,HLA-A*0101; [1],20 nM and 30 nM
ISDYRHYNY,IC50,HLA-A*2902,45 nM
same,IC50,HLA-A*0101; [1],16 nM and 28 nM
ISEYRHYQY,IC50,HLA-A*0101; [1],40 nM
ITEYRHYQY,IC50,HLA-A*0101; [1],90 nM
ITKILYQSNPY,IC50,HLA-A*2902,64900 nM
same,IC50,HLA-A*0101; [1],> 10100 nM
KEKGGLDGLI,IC50,HLA-B*4403; B*4403,3630 nM
same,IC50,HLA-B*4501; B*4501,9990 nM
same,IC50,HLA-B*1801; B*1801,> 22800 nM
same,IC50,HLA-B*4002; B*4002,233 nM
same,IC50,HLA-B*4402; B*4402,14700 nM
KTGPGPGHLY,IC50,HLA-A*3002; [2],1.3 nM
same,IC50,HLA-A*0101; [1],29 nM
KTYGPGPGLY,IC50,HLA-A*3002; [2],0.96 nM
same,IC50,HLA-A*0101; [1],5.7 nM
LDKGIKPY,IC50,HLA-B*4403; B*4403,19300 nM
same,IC50,HLA-B*4501; B*4501,23600 nM
same,IC50,HLA-B*1801; B*1801,> 100000 nM
same,IC50,HLA-B*4001; B*4001,17900 nM
same,IC50,HLA-B*4002; B*4002,468 nM
same,IC50,HLA-B*4402; B*4402,> 43200 nM
LDPYARVAI,IC50,HLA-B*4403,> 39800 nM
same,IC50,HLA-B*4501,> 49000 nM
same,IC50,HLA-B*1801,> 24400 nM
same,IC50,HLA-B*4001,> 88900 nM
same,IC50,HLA-B*4002,372 nM
same,IC50,HLA-B*4402,> 41600 nM
LEASISGKY,IC50,HLA-A*3002,87 nM
same,IC50,HLA-A*0101; [1],57800 nM
LIENELMNY,IC50,HLA-A*2902; [3],3940 nM
same,IC50,HLA-A*0101; [1],412 nM
LSGPGPGAIFY,IC50,HLA-A*0101; [4],25 nM
LSLDGPGPGY,IC50,HLA-A*2902; [3],274 nM
same,IC50,HLA-A*0101; [1],266 nM
LSLGPGPGFY,IC50,HLA-A*3002; [2],8.2 nM
same,IC50,HLA-A*0101; [1],21 nM
MDIDPYKEF,IC50,HLA-B*4403; B*4403,1950 nM
same,IC50,HLA-B*4501; B*4501,2610 nM
same,IC50,HLA-B*1801; B*1801,169000 nM
same,IC50,HLA-B*4001; B*4001,3700 nM
same,IC50,HLA-B*4002; B*4002,382 nM
same,IC50,HLA-B*4402; B*4402,21700 nM
NLALLYGEY,IC50,HLA-A*3002; [2],102 nM
same,IC50,HLA-A*0101; [1],275 nM
NVDQQNIDMY,IC50,HLA-A*0101; [4],47 nM
PENLWVTVY,IC50,HLA-B*4403,> 425000 nM
same,IC50,HLA-B*4501,> 49000 nM
same,IC50,HLA-B*1801,190 nM
same,IC50,HLA-B*4001,> 72700 nM
same,IC50,HLA-B*4002,> 155000 nM
same,IC50,HLA-B*4402,> 167000 nM
QEILDLWV,IC50,HLA-B*4403; B*4403,5920 nM
same,IC50,HLA-B*4501; B*4501,5500 nM
same,IC50,HLA-B*1801; B*1801,> 22800 nM
same,IC50,HLA-B*4002; B*4002,1720 nM
same,IC50,HLA-B*4402; B*4402,> 81400 nM
RERPDNYV,IC50,HLA-B*4403; read-out: B*4403,> 34500 nM
same,IC50,HLA-B*4501; read-out: B*4501,34600 nM
same,IC50,HLA-B*1801; read-out: B*1801,> 73800 nM
same,IC50,HLA-B*4001; read-out: B*4001,71600 nM
same,IC50,HLA-B*4002; read-out: B*4002,62 nM
same,IC50,HLA-B*4402; read-out: B*4402,> 67600 nM
RTETPTLQDY,IC50,HLA-A*2902,1990 nM
same,IC50,HLA-A*0101; [1],11 nM and 40 nM
SEAPKYAIL,IC50,HLA-B*4403; B*4403,2260 nM
same,IC50,HLA-B*4501; B*4501,479 nM
same,IC50,HLA-B*1801; B*1801,2260 nM
same,IC50,HLA-B*4002; B*4002,7.8 nM
same,IC50,HLA-B*4402; B*4402,762 nM
SYQHFRIKLLL,IC50,HLA-A*0101; [4],> 83300 nM
TLEGPGPGGLY,IC50,HLA-A*3002; [2],40 nM
same,IC50,HLA-A*0101; [1],11 nM
WVYHTQGYY,IC50,HLA-A*3002,5.6 nM
same,IC50,HLA-A*0101; [1],703 nM
YENLWVTVY,IC50,HLA-B*4403,369 nM
same,IC50,HLA-B*4501,10700 nM
same,IC50,HLA-B*1801,29 nM
same,IC50,HLA-B*4002,324 nM
same,IC50,HLA-B*4402,640 nM
YSDISEYRHY,IC50,HLA-A*2902,1350 nM
same,IC50,HLA-A*0101; [1],3.8 nM
YSDVSEFRWY,IC50,HLA-A*2902,1840 nM
same,IC50,HLA-A*0101; [1],3.9 nM
